In patent publication US11345694B2, “Antibacterial compounds” (DISCUVA LTD., priority 2017, dated 2022):
Converted amounts (≈) assume the structure as drawn.

Experiments:
[1] = system: human hepatocarcinoma cell line ATCC HB-8065 (HepG2); experiment: Human cell viability (CellTiter-Glo); type: cell-based; details: Homo sapiens; HepG2 cells, 24 h incubation, CellTiter-Glo luminescence, 0.2-100 μM; read-out: IC50 values against the HepG2 cell line
Protocol: Compounds are assessed for potential non-specific cytotoxic effects against the human hepatocarcinoma cell line ATCC HB-8065 (HepG2). HepG2 cells are seeded at 20,000 cells/well in 96-well microtitre plates in minimal essential medium (MEM) supplemented with a final concentration of 10% FBS. After 24 h, compound dilutions are prepared in MEM supplemented with a final concentration of 1% FBS, and added to the cells. Compounds are tested in two-fold serial dilutions over a final concentration range of 0.2-100 μM in a final DMSO concentration of 1% vol/vol. Thioridazine is used as a positive control. Cells are incubated with compound at 37° C. and 5% CO2 for a further 24 h, after which time the CellTiter-Glo reagent (Promega) is added. Luminescence is measured on a Perkin Elmer Envision plate reader. Data are analysed using a 4 parameter logistic regression to determine the concentration of compound that inhibits cell viability by fifty percent (IC50).

[2] = system: E. coli NCTC 13441 (UPEC); experiment: MIC broth microdilution; type: cell-based, Escherichia coli; details: Escherichia coli, NCTC13441
Protocol: (§1) Minimum Inhibitory Concentrations (MICs) versus planktonic bacteria are determined by the broth microdilution procedure according to the guidelines of the Clinical and Laboratory Standards Institute (Clinical and Laboratory Standards Institute. Methods for Dilution Antimicrobial Susceptibility Tests for Bacteria That Grow Aerobically; Approved Standard-tenth Edition. CLSI document M07-A10, 2015). The broth dilution method involves a two-fold serial dilution of compounds in 96-well microtitre plates, giving a final concentration range of 0.39-200 μM and a maximum final concentration of 2% DMSO. The bacterial strains tested include Escherichia coli K12 (EC), E. coli NCTC 13441 (UPEC), Staphylococcus aureus ATCC 35556 (SA), Acinetobacter baumannii ATCC 17978 (AB), Pseudomonas aeruginosa ATCC 33359 (PA), Enterobacter cloacae DSM 30054 (Ed), Serratia marcescens SL1344 (Sm), Salmonella typhimurium XNAA5 (St), Klebsiella pneumoniae ATCC 10031 (KP2), K. pneumoniae NCTC 13438 (KP1), K. pneumoniae ATCC 700603 (KP3), Klebsiella pneumoniae ATCC 51504 (KP4), K. pneumoniae H154680676 (KP5), K. pneumoniae H154020667 (KP6), K. pneumoniae H154640784 (KP7), K. pneumoniae H154600588 (KP8), K. pneumoniae H154300688 (KP9), K. pneumoniae H151440671 (KP10). Strains are grown in cation-adjusted Müller-Hinton broth or on Luria Bertoni agar at 37° C. in an ambient atmosphere. The MIC is determined as the lowest concentration of compound that inhibits growth following a 20-24 hour incubation period.

[3] = system: Staphylococcus aureus ATCC 35556 (SA); experiment: MIC broth microdilution; type: cell-based; details: ATCC35556
Protocol: as §1

[4] = system: Klebsiella pneumoniae ATCC 10031 (KP2); experiment: MIC broth microdilution; type: cell-based; details: ATCC10031
Protocol: as §1

[5] = system: Escherichia coli K12 (EC); experiment: MIC broth microdilution; type: cell-based
Protocol: as §1

[6] = system: Pseudomonas aeruginosa ATCC 33359 (PA); experiment: MIC broth microdilution; type: cell-based; details: ATCC33359
Protocol: as §1

[7] = system: Acinetobacter baumannii ATCC 17978 (AB); experiment: MIC broth microdilution; type: cell-based; details: ATCC17978
Protocol: as §1

[8] = system: K. pneumoniae NCTC 13438 (KP1); experiment: MIC broth microdilution; type: cell-based, Klebsiella pneumoniae; details: Klebsiella pneumoniae, NCTC13438
Protocol: as §1

SMILES | IC50 [1] | MIC [2] | MIC [3] | MIC [4] | MIC [5] | MIC [6] | MIC [7] | MIC [8]
COc1ccc(-c2[nH]c(N)nc2-c2ccnc(C)c2)cc1F [Example 11, 5-(3-Fluoro-4-methoxyphenyl)-4-(2-methylpyridin-4-yl)-1H-imidazol-2-amine] | > 100 µM | 1 to 10 µM (≈ 0.298 to 2.98 µg/mL) | > 100 µM | ≤ 1 µM | 1 to 10 µM (≈ 0.298 to 2.98 µg/mL) | > 100 µM | > 100 µM | 10 to 100 µM (≈ 2.98 to 29.8 µg/mL)
Cc1cc(-c2[nH]c(=S)[nH]c2-c2ccc3c(c2)OCCO3)ccn1 [Example 81, 4-(2,3-Dihydrobenzo[b][1,4]dioxin-6-yl)-5-(2-methylpyridin-4-yl)-1,3-dihydro-2H-imidazole-2-thione] | > 100 µM | 10 to 100 µM (≈ 3.25 to 32.5 µg/mL) | > 100 µM | ≤ 1 µM | 10 to 100 µM (≈ 3.25 to 32.5 µg/mL) | > 100 µM | > 100 µM | > 100 µM
CC(=O)Nc1nc(-c2ccc3c(c2)OCCO3)c(-c2ccnc(C)c2)[nH]1 [Example 72, N-(4-(2,3-Dihydrobenzo[b][1,4]dioxin-6-yl)-5-(2-methylpyridin-4-yl)-1H-imidazol-2-yl)acetamide] | – | > 100 µM | > 100 µM | 1 to 10 µM (≈ 0.35 to 3.5 µg/mL) | > 100 µM | > 100 µM | > 100 µM | > 100 µM
Cc1cc(-c2[nH]c(N(C)C)nc2-c2ccc3c(c2)NCCO3)ccn1 [Example 79, 4-(3,4-Dihydro-2H-benzo[b][1,4]oxazin-6-yl)-N,N-dimethyl-5-(2-methylpyridin-4-yl)-1H-imidazol-2-amine] | – | 1 to 10 µM (≈ 0.335 to 3.35 µg/mL) | > 100 µM | 1 to 10 µM (≈ 0.335 to 3.35 µg/mL) | 10 to 100 µM (≈ 3.35 to 33.5 µg/mL) | > 100 µM | > 100 µM | > 100 µM
Cc1cc(-c2[nH]c(N)nc2-c2ccc3c(c2)OCCCO3)ccn1 [Example 5, 4-(3,4-dihydro-2H-benzo[b][1,4]dioxepin-7-yl)-5-(2-methylpyridin-4-yl)-1H-imidazol-2-amine] | > 100 µM | 1 to 10 µM (≈ 0.322 to 3.22 µg/mL) | > 100 µM | ≤ 1 µM | 1 to 10 µM (≈ 0.322 to 3.22 µg/mL) | > 100 µM | > 100 µM | 10 to 100 µM (≈ 3.22 to 32.2 µg/mL)
Nc1nc(-c2ccc3c(c2)NCCO3)c(-c2ccncc2)[nH]1 [Example 39, 4-(3,4-Dihydro-2H-benzo[b][1,4]oxazin-6-yl)-5-(pyridin-4-yl)-1H-imidazol-2-amine] | > 100 µM | ≤ 1 µM | > 100 µM | ≤ 1 µM | ≤ 1 µM | > 100 µM | > 100 µM | 10 to 100 µM (≈ 2.93 to 29.3 µg/mL)
Nc1cc(-c2[nH]c(N)nc2-c2ccc3c(c2)NCCO3)ccn1 [Example 42, 4-(2-Amino-4-(3,4-dihydro-2H-benzo[b][1,4]oxazin-6-yl)-1H-imidazol-5-yl)pyridin-2-amine] | > 100 µM | 1 to 10 µM (≈ 0.308 to 3.08 µg/mL) | > 100 µM | ≤ 1 µM | 1 to 10 µM (≈ 0.308 to 3.08 µg/mL) | > 100 µM | > 100 µM | 10 to 100 µM (≈ 3.08 to 30.8 µg/mL)
Nc1nc(-c2ccc3c(c2)NCCO3)c(-c2ccnc(C(F)(F)F)c2)[nH]1 [Example 46, 4-(3,4-Dihydro-2H-benzo[b][1,4]oxazin-6-yl)-5-(2-(trifluoromethyl)pyridin-4-yl)-1H-imidazol-2-amine] | > 100 µM | 1 to 10 µM (≈ 0.361 to 3.61 µg/mL) | > 100 µM | ≤ 1 µM | 1 to 10 µM (≈ 0.361 to 3.61 µg/mL) | > 100 µM | > 100 µM | 10 to 100 µM (≈ 3.61 to 36.1 µg/mL)
Cc1cc(-c2nc(N)[nH]c2-c2ccc(C(=O)N(C)C)cc2)ccn1 [Example 10, 4-(2-Amino-4-(2-methylpyridin-4-yl)-1H-imidazol-5-yl)-N,N-dimethylbenzamide] | > 100 µM | > 100 µM | > 100 µM | 1 to 10 µM (≈ 0.321 to 3.21 µg/mL) | > 100 µM | > 100 µM | > 100 µM | > 100 µM
CNc1nc(-c2ccc3c(c2)NCCO3)c(-c2ccnc(C)c2)[nH]1 [Example 78, 4-(3,4-Dihydro-2H-benzo[b][1,4]oxazin-6-yl)-N-methyl-5-(2-methylpyridin-4-yl)-1H-imidazol-2-amine] | – | 1 to 10 µM (≈ 0.321 to 3.21 µg/mL) | > 100 µM | ≤ 1 µM | 1 to 10 µM (≈ 0.321 to 3.21 µg/mL) | > 100 µM | > 100 µM | 10 to 100 µM (≈ 3.21 to 32.1 µg/mL)
Cc1cc(-c2[nH]c(N)nc2-c2ccc3c(c2)N(C(C)C)C(=O)CO3)ccn1 [Example 68, 6-(2-Amino-4-(2-methylpyridin-4-yl)-1H-imidazol-5-yl)-4-isopropyl-2H-benzo[b][1,4]oxazin-3(4H)-one] | – | 1 to 10 µM (≈ 0.363 to 3.63 µg/mL) | > 100 µM | ≤ 1 µM | 1 to 10 µM (≈ 0.363 to 3.63 µg/mL) | > 100 µM | > 100 µM | 10 to 100 µM (≈ 3.63 to 36.3 µg/mL)
Cc1cc(-c2[nH]c(N)nc2-c2ccc3c(c2)N(CC2CC2)C(=O)CO3)ccn1 [Example 67, 6-(2-Amino-4-(2-methylpyridin-4-yl)-1H-imidazol-5-yl)-4-(cyclopropylmethyl)-2H-benzo[b][1,4]oxazin-3(4H)-one] | – | 1 to 10 µM (≈ 0.375 to 3.75 µg/mL) | > 100 µM | ≤ 1 µM | 1 to 10 µM (≈ 0.375 to 3.75 µg/mL) | > 100 µM | > 100 µM | 10 to 100 µM (≈ 3.75 to 37.5 µg/mL)
Cc1cc(-c2[nH]c(=O)[nH]c2-c2ccc3c(c2)OCCO3)ccn1 [Example 82, 4-(2,3-Dihydrobenzo[b][1,4]dioxin-6-yl)-5-(2-methylpyridin-4-yl)-1,3-dihydro-2H-imidazol-2-one] | – | 10 to 100 µM (≈ 3.09 to 30.9 µg/mL) | > 100 µM | ≤ 1 µM | 10 to 100 µM (≈ 3.09 to 30.9 µg/mL) | > 100 µM | > 100 µM | > 100 µM
Cc1cc(-c2nc(N)[nH]c2-c2ccc3c(c2)N(CCOCCO)C(=O)CO3)ccn1 [Example 70, 6-(2-Amino-4-(2-methylpyridin-4-yl)-1H-imidazol-5-yl)-4-(2-(2-hydroxyethoxy)ethyl)-2H-benzo[b][1,4]oxazin-3(4H)-one] | – | 1 to 10 µM (≈ 0.409 to 4.09 µg/mL) | > 100 µM | ≤ 1 µM | 1 to 10 µM (≈ 0.409 to 4.09 µg/mL) | > 100 µM | > 100 µM | 10 to 100 µM (≈ 4.09 to 40.9 µg/mL)
Cc1cc(-c2[nH]c(N)nc2-c2ccc3c(c2)N(C2CCCC2)C(=O)CO3)ccn1 [Example 69, 6-(2-Amino-4-(2-methylpyridin-4-yl)-1H-imidazol-5-yl)-4-cyclopentyl-2H-benzo[b][1,4]oxazin-3(4H)-one] | – | 1 to 10 µM (≈ 0.389 to 3.89 µg/mL) | > 100 µM | ≤ 1 µM | 1 to 10 µM (≈ 0.389 to 3.89 µg/mL) | > 100 µM | > 100 µM | 10 to 100 µM (≈ 3.89 to 38.9 µg/mL)
Cc1cc(-c2[nH]c(N)nc2-c2ccc3c(c2)N(CCOCCO)CCO3)ccn1 [Example 95, 2-(2-(6-(2-Amino-5-(2-methylpyridin-4-yl)-1H-imidazol-4-y1)-2,3-dihydro-4H-benzo[b][1,4]oxazin-4-yl)ethoxy)ethan-1-ol] | – | 1 to 10 µM (≈ 0.395 to 3.95 µg/mL) | > 100 µM | ≤ 1 µM | 1 to 10 µM (≈ 0.395 to 3.95 µg/mL) | > 100 µM | > 100 µM | 10 to 100 µM (≈ 3.95 to 39.5 µg/mL)
Nc1nc(-c2ccncn2)c(-c2ccc3c(c2)OCCO3)[nH]1 [Example 30] | – | 10 to 100 µM (≈ 2.95 to 29.5 µg/mL) | > 100 µM | 1 to 10 µM (≈ 0.295 to 2.95 µg/mL) | 10 to 100 µM (≈ 2.95 to 29.5 µg/mL) | > 100 µM | > 100 µM | > 100 µM
Cc1cc(-c2c(-c3ccc4c(c3)OCCO4)nc(N)n2C)ccn1 [Example 73, 4-(2,3-dihydrobenzo[b][1,4]dioxin-6-yl)-1-methyl-5-(2-methylpyridin-4-yl)-1H-imidazol-2-amine] | – | > 100 µM | > 100 µM | > 100 µM | > 100 µM | > 100 µM | > 100 µM | > 100 µM
Nc1nc(-c2ccc3c(c2)OCCO3)c(-c2cccnc2)[nH]1 [Example 22, 4-(2,3-Dihydrobenzo[b][1,4]dioxin-6-yl)-5-(pyridin-3-yl)-1H-imidazol-2-amine] | – | > 100 µM | > 100 µM | 1 to 10 µM (≈ 0.294 to 2.94 µg/mL) | > 100 µM | > 100 µM | > 100 µM | > 100 µM
